Results on 16 compounds are retold here after US7855290B2, “Pyridine derivatives and pyrimidine derivatives (3)” (Eisai R&D Management Co., Ltd., priority 2005, dated 2010).

The term IC50 denotes the point on the concentration scale where inhibition reaches its midpoint.

Assay [1] has as its target T1, His6-HGFR (HGFR cytoplasmic domain) (Homo sapiens, UniProt P08581).
T1 construct: made in house; host or cells: Sf9 insect cells (Spodoptera frugiperda), baculovirus, pFastBac-HT vector
The assay can be described thus: Inhibitory activity against HGFR tyrosine kinase activity (HTRF). In kind it is biochemical. The conditions noted are these: biotin-poly(GT), ATP, 30° C. 10 min. An excerpt: The cytoplasmic domain of HGFR (Genbank Accession No. J02958) is a 1.3 kb DNA fragment beginning with Lys974 and including a stop codon, and described by Park et al. (Proc. Natl. Acad. Sci. U.S.A. 84(18), 6379-6383, 1987). The DNA fragment was isolated from the human placental cDNA library (purchased from Clontech) by PCR (TaKaRa Ex Taq™ Kit, purchased from TaKaRa) using two kinds of primers (SEQ ID NO: 1,5′-[…]-3′ and SEQ ID NO: 2,5′-[…]-3′, purchased from Invitrogen). The DNA fragment was cloned into a baculovirus transplace vector (pFastBac™-HT (purchased from GIBCO BRL)) to produce a recombinant construct. […] EGFR was purchased from Sigma (Production No. E-2645).
To the suspension of Sf9 cells (3×10^8 cells) in SF-900II medium (purchased from Invitrogen) containing 2% FBS was added a solution of HGFR transfected baculovirus above (4 ml), followed by a shaking culture at 27° C. for 48 hrs. The cells infected with the HGFR transfected baculovirus were centrifuged at 1,000 rpm, 4° C. for 5 min to remove the supernatant. The precipitated infected cells were suspended in 80 ml of ice-cold PBS, and centrifuged at 1,000 rpm, 4° C. for 5 min to remove the supernatant. The precipitated infected cells were suspended in 40 ml of ice-cold Lysis Buffer (50 mM Tris-HCl (pH 8.5), 5 mM 2-mercaptoethanol, 100 mM KCl, 1 mM PMSF and 1% (v/v) NP-40). The suspension was centrifuged at 12,000 rpm, 4° C. for 30 min to provide a supernatant.
The supernatant was loaded onto an Ni-NTA agarose column (3 ml, purchased from Qiagen) equilibrated with 30 ml of Buffer A (20 mM Tris-HCl (pH 8.5), 5 mM 2-mercaptoethanol, 500 mM KCl, 20 mM imidazole and 10% (v/v) glycerol). The column was washed with 30 ml of Buffer A, 6 ml of Buffer B (20 mM Tris-HCl (pH 8.5), 5 mM 2-mercaptoethanol, 1 M KCl, and 10% (v/v) glycerol) and 6 ml of Buffer A in this order. Then, the column was eluted with 6 ml of Buffer C (20 mM Tris-HCl (pH 8.5), 5 mM 2-mercaptoethanol, 100 mM KCl, 100 mM imidazole, and 10% (v/v) glycerol) to provide a fraction. The fraction was entrapped in a dialysis membrane (purchased from Spectrum Laboratories), dialyzed at 4° C. overnight with 1 L of dialysis buffer (20 mM Tris-HCl (pH 7.5), 10% (v/v) glycerol, 1 mM dithiothreitol, 0.1 mM Na3VO4 and 0.1 mM EGTA), and stored at −80° C. until used. […] The VEGFR2 cytoplasmic domain, the FGFR1 cytoplasmic domain, and the PDGFRβ cytoplasmic domain were fused with six histidine at the N terminus by the similar method to produce respective recombinant proteins (His6-VEGFR2, His6-FGFR1, and His6-PDGFRβ).
To each well of a 96-well round plate (purchased from NUNC, Production No. 163320) were added 10 μl of a solution for kinase reaction (200 mM Hepes (pH 7.4), 80 mM MgCl2, 16 mM MnCl2 and 2 mM Na3VO4), 250 ng of biotinylated poly(Glu4: Tyr1) (biotin-poly(GT), purchased from Japan Schering) (6 μl, 15-fold diluted with distilled water), 30 ng of His6-HGFR (10 μl, 60-fold diluted with 0.4% BSA) and a test substance dissolved in dimethylsulfoxide (4 μl, 100-fold diluted with 0.1% BSA) to mess up to 30 μl. To the well was added 10 μl of 4 μM ATP (purchased from Sigma) diluted with distilled water to incubate at 30° C. for 10 min, followed by adding 10 μl of 500 mM EDTA (pH 8.0) (purchased from Wako Pure Chemicals) to provide a kinase reaction solution.
The tyrosine-phosphorylated biotin-poly(GT) was detected using the Homogenous Time-Resolved Fluorescence (HTRF) method (Analytical Biochemistry, 269, 94-104, 1999).
(In general: TR-FRET usually uses a lanthanide donor and a delayed reading to cut background.)

Assay [2] has as its system Human gastric cancer cells (MKN-45). Put plainly: Inhibitory activity against the proliferation of human gastric cancer cells (MKN-45). In kind it is cell-based. As to conditions: 72 h, MKN-45, 1% FBS RPMI1640, 3 days, Cell Counting Kit-8. In short, it runs like this:
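MKN-45 cells seeded overnight in RPMI1640 with 1% FBS, then exposed to compound for 3 days at 37° C, 5% CO2. Viability read with CCK-8 after about 1.5 hrs, absorbance at 450 nm (reference 660 nm).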
(Tetrazolium dyes change colour on reduction, which living cells bring about.)

T1 sequence (P08581 956-1390 limits assumed): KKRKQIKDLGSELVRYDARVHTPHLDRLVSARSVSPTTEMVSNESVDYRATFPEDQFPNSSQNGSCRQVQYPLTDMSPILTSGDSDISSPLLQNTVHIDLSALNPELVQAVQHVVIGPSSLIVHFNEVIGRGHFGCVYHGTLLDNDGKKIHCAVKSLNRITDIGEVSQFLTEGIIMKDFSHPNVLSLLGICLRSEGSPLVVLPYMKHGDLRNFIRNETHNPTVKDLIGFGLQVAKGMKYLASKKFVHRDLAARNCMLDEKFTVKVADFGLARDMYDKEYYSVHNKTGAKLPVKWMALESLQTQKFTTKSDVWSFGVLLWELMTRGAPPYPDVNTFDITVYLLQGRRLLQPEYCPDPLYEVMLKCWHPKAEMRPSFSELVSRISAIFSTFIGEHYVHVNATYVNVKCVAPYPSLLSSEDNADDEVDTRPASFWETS

For the compound `CN1CCN(C2CCN(C(=O)Nc3cc(Oc4ccc(NC(=O)C5(C(=O)Nc6ccc(F)cc6)CC5)cc4F)ccn3)CC2)CC1` [Example 20, N-(3-Fluoro-4-{[2-({[-4-(4-methylpiperazin-1-yl)piperidin-1-yl]-carbonyl}amino)pyridin-4-yl]oxy}phenyl)-N′-(4-fluorophenyl)cyclopropane-1,1-dicarboxamide], the values for the IC50 in assay [1] and in assay [2] were 59 nM and 15 nM, respectively.

`CN(C)C1CN(C2CCN(C(=O)Nc3cc(Oc4ccc(NC(=O)C5(C(=O)Nc6ccc(F)cc6)CC5)cc4F)ccn3)CC2)C1` [Example 21, N-[4-({2-[({4-[3-(Dimethylamino)azetidin-1-yl]piperidin-1-yl}carbonyl)amino]pyridin-4-yl}oxy)-3-fluorophenyl]-N′-(4-fluorophenyl)cyclopropane-1,1-dicarboxamide]: the figures for the IC50 in assay [1] and in assay [2] were 62 nM and 27 nM, respectively.

As for `CN1CC(N2CCN(C(=O)Nc3cc(Oc4ccc(NC(=O)C5(C(=O)Nc6ccc(F)cc6)CC5)cc4F)ccn3)CC2)C1` [Example 22, N-(3-Fluoro-4-{[2-({[4-(1-methylazetidin-3-yl)piperazin-1-yl]carbonyl}amino)pyridin-4-yl]oxy}phenyl)-N′-(4-fluorophenyl)cyclopropane-1,1-dicarboxamide], the IC50 worked out at 50 nM in assay [1] and 13 nM in assay [2].

As to `CN(C)C1CCN(C(=O)Nc2cc(Oc3ccc(NC(=O)C4(C(=O)Nc5ccc(F)cc5)CC4)cc3F)ccn2)CC1` [Example 23, N-(4-{[2-({[4-(Dimethylamino)piperidin-1-yl]carbonyl}amino)pyridin-4-yl]oxy}-3-fluorophenyl)-N′-(4-fluorophenyl)cyclopropane-1,1-dicarboxamide], the IC50 in assay [1] turned out to be 45 nM; in assay [2], 36 nM.

Consider `CN(C)[C@H]1CCN(C(=O)Nc2cc(Oc3ccc(NC(=O)C4(C(=O)Nc5ccc(F)cc5)CC4)cc3F)ccn2)C1` [Example 24, N-(4-{[2-({[(3S)-3-(Dimethylamino)pyrrolidin-1-yl]carbonyl}amino)pyridin-4-yl]oxy}-3-fluorophenyl)-N′-(4-fluorophenyl)cyclopropane-1,1-dicarboxamide], for which the IC50 turned out to be 48 nM in assay [1] and 17 nM in assay [2].

`CN(C)CCN1CCC(N(C)C(=O)Nc2cc(Oc3ccc(NC(=O)C4(C(=O)Nc5ccc(F)cc5)CC4)c(F)c3)ccn2)CC1` [Example 25, N-(4-{[2-({[{1-[2-(Dimethylamino)ethyl]piperidin-4-yl}(methyl)amino]carbonyl}amino)pyridin-4-yl]oxy}-2-fluorophenyl)-N′-(4-fluorophenyl)cyclopropane-1,1-dicarboxamide]: the IC50 in assay [1] is 85 nM; in assay [2] it was 19 nM.

Regarding `O=C(Nc1cc(Oc2ccc(NC(=O)C3(C(=O)Nc4ccc(F)cc4)CC3)cc2F)ccn1)N1CCC(CN2CCC2)CC1` [Example 26, N-(4-{[2-({[4-(Azetidin-1-ylmethyl)piperidin-1-yl]carbonyl}amino)pyridin-4-yl]oxy}-3-fluorophenyl)-N′-(4-fluorophenyl)cyclopropane-1,1-dicarboxamide], the IC50 stood at 58 nM in assay [1] and 19 nM in assay [2].

Consider `O=C(Nc1cc(Oc2ccc(NC(=O)C3(C(=O)Nc4ccc(F)cc4)CC3)cc2)ccn1)N1CCC(CN2CCC2)CC1` [Example 27, N-(4-{[2-({f [4-(Azetidin-1-ylmethyl)piperidin-1-yl]carbonyl}amino)pyridin-4-yl]oxy}phenyl)-N′-(4-fluorophenyl)cyclopropane-1,1-dicarboxamide], for which the values for the IC50 in assay [1] and in assay [2] were 59 nM and 48 nM, respectively.

`O=C(Nc1cc(Oc2ccc(NC(=O)C3(C(=O)Nc4ccc(F)cc4)CC3)cc2)ccn1)N1CCN(CCN2CCC2)CC1` [Example 28, N-(4-{[2-({[4-(2-Azetidin-1-ylethyl)piperazin-1-yl]carbonyl}amino)pyridin-4-yl]oxy}phenyl)-N′-(4-fluorophenyl)cyclopropane-1,1-dicarboxamide]: the IC50 in assay [1] was 72 nM; in assay [2], 54 nM.

As to `O=C(Nc1cc(Oc2ccc(NC(=O)C3(C(=O)Nc4ccc(F)cc4)CC3)cc2)ccn1)N1CCC(CN2CCCC2)CC1` [Example 29, N-(4-Fluorophenyl)-N′-(4-{[2-({[4-(pyrrolidin-1-ylmethyl)piperidin-1-yl]-carbonyl}amino)pyridin-4-yl]oxy}phenyl)cyclopropane-1,1-dicarboxamide], the concentration for half-maximal inhibition (IC50) in assay [1] was found to be 63 nM; in assay [2] it was 50 nM.

For the compound `CN(C)CCN1CCN(C(=O)Nc2cc(Oc3ccc(NC(=O)C4(C(=O)Nc5ccc(F)cc5)CC4)cc3)ccn2)CC1` [Example 30, N-[4-({2-[({4-[2-(Dimethylamino)ethyl]piperazin-1-yl}carbonyl)amino]pyridin-4-yl}oxy)phenyl]-N′-(4-fluorophenyl)cyclopropane-1,1-dicarboxamide], the results for the IC50 in assay [1] and in assay [2] were 44 nM and 39 nM, respectively.

`CN1CCC(N2CCN(C(=O)Nc3cc(Oc4ccc(NC(=O)C5(C(=O)Nc6ccc(F)cc6)CC5)cc4)ccn3)CC2)CC1` [Example 31, N-(4-Fluorophenyl)-N′-(4-{[2-({[4-(1-methylpiperidin-4-yl)piperazin-1-yl]carbonyl}amino)pyridin-4-yl]oxy}phenyl)cyclopropane-1,1-dicarboxamide]: the IC50 in assay [1] stood at 62 nM; in assay [2], 31 nM.

As for `CN1CCN(C2CCN(C(=O)Nc3cc(Oc4ccc(NC(=O)C5(C(=O)Nc6ccc(F)cc6)CC5)cc4)ccn3)CC2)CC1` [Example 32, N-(4-Fluorophenyl)-N′-(4-{[2-({[4-(4-methylpiperazin-1-yl)piperidin-1-yl]carbonyl}amino)pyridin-4-yl]oxy}phenyl)cyclopropane-1,1-dicarboxamide], the IC50 in assay [1] is 50 nM; in assay [2], 27 nM.

Regarding `CN1CCC(N(C)C(=O)Nc2cc(Oc3ccc(NC(=O)C4(C(=O)Nc5ccc(F)cc5)CC4)cc3F)ncn2)CC1` [Example 33, N-(3-Fluoro-4-{[6-({[methyl(1-methylpiperidin-4-yl)amino]carbonyl}amino)pyrimidin-4-yl]oxy}phenyl)-N′-(4-fluorophenyl)cyclopropane-1,1-dicarboxamide], the IC50 in assay [1] came out at 26 nM; in assay [2], 55 nM.

For `O=C(Nc1cc(Oc2ccc(NC(=O)C3(C(=O)Nc4ccc(F)cc4)CC3)cc2F)ncn1)N1CCC(N2CCC2)CC1` [Example 34, N-{4-[(6-{[(4-Azetidin-1-ylpiperidin-1-yl)carbonyl]amino}pyrimidin-4-yl)oxy]-3-fluorophenyl}-N′-(4-fluorophenyl)cyclopropane-1,1-dicarboxamide], the IC50 in assay [1] was found to be 73 nM; in assay [2] it was 190 nM.

On to `O=C(Nc1cc(Oc2ccc(NC(=O)C3(C(=O)Nc4ccc(F)cc4)CC3)cc2F)ncn1)N1CCOCC1` [Example 35, N-[3-Fluoro-4-({6-{(morpholin-4-ylcarbonyl)amino}pyrimidin-4-yl}oxy)phenyl]-N′-(4-fluorophenyl)cyclopropane-1,1-dicarboxamide], for which the IC50 in assay [1] amounted to 29 nM; in assay [2], 230 nM.
